We go through 27 molecules from patent publication US9902702B2, “Spirocycloheptanes as inhibitors of rock” (BRISTOL-MYERS SQUIBB COMPANY, priority 2014, dated 2018).

Counter-ions that a name gives are not always drawn.

One may read the IC50 as the point on the concentration scale where inhibition reaches its midpoint.

The target of this assay is ROCK2 (Homo sapiens, UniProt O75116). Put plainly: ROCK assay: phosphorylation of FITC peptide substrate, LABCHIP 3000 mobility shift. Particulars: 5 μM ATP, 1.5 μM peptide substrate; read-out: ROCK2 Activity (ROCK IC50 range). The class given is biochemical. The gist of the method: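 Rho kinase variant phosphorylates 1.5 μM FITC-AHA-AKRRRLSSLRA-OH with 5 μM ATP in 20 mM HEPES pH 7.5, 20 mM MgCl2, 0.015% Brij-35, 4 mM DTT, DMSO <2%. EDTA stops the reaction, and phospho and non-phospho peptides are resolved by LabChip 3000 mobility shift. IC50 from dose-response curve fit.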
Sequence of ROCK2 (O75116 whole entry, species assumed): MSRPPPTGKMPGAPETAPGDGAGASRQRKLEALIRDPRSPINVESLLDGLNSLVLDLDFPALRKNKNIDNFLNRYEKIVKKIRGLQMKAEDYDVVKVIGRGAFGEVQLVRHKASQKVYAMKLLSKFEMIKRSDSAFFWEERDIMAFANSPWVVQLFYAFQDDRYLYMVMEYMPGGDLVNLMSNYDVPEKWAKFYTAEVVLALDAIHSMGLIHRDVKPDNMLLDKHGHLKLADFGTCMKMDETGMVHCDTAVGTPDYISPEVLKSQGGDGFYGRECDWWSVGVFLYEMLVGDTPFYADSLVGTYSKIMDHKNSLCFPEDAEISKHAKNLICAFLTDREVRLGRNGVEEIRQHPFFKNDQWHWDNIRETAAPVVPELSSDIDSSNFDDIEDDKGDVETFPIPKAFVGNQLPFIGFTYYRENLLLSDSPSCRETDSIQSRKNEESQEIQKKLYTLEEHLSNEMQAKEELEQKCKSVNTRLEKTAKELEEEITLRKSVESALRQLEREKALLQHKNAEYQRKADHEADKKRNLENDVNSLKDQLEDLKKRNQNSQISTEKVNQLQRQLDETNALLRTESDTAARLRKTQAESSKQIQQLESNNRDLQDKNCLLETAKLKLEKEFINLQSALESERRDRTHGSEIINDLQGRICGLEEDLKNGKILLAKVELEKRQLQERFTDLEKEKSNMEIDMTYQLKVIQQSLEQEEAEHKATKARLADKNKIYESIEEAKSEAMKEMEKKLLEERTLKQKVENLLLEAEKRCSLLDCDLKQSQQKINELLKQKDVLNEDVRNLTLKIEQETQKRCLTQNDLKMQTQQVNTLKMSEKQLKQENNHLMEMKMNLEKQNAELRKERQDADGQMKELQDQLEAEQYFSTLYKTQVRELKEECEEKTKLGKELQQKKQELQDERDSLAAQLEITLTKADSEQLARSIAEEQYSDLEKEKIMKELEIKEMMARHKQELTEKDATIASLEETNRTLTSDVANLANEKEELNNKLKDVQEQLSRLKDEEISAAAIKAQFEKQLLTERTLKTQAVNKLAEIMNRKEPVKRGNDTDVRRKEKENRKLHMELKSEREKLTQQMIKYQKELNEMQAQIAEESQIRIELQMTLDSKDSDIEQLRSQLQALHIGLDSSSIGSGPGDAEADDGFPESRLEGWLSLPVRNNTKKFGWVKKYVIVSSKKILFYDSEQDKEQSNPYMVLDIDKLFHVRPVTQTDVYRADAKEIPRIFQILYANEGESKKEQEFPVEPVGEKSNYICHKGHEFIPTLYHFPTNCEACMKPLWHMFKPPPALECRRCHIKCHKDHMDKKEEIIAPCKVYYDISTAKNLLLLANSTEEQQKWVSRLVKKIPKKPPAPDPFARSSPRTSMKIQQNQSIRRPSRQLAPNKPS
For `[H][C@]1(c2n[nH]c(=O)c3ccccc32)C[C@]2(C[C@@H](NC(=O)c3ccc(-c4cn[nH]c4)c(C#N)c3)C2)C1` (stereo partly drawn) [Example 417, 3-cyano-N-((aR)-6-(4-oxo-3,4-dihydrophthalazin-1-yl)spiro[3.3]heptan-2-yl)-4-(1H-pyrazol-4-yl)benzamide], the IC50 fell in the range of 0.2 to 2 nM. With `[H][C@]1(c2n[nH]c(=O)c3ccccc32)C[C@]2(C[C@@H](NC(=O)c3ccc(-c4cn[nH]c4)c(C)c3)C2)C1` (stereo partly drawn) [Example 418, 3-methyl-N-((aR)-6-(4-oxo-3,4-dihydrophthalazin-1-yl)spiro[3,3]heptan-2-yl)-4-(1H-pyrazol-4-yl)benzamide] the figure was 0.2 to 2 nM; with `[H][C@]1(c2n[nH]c(=O)c3ccccc32)C[C@]2(C[C@@H](NC(=O)c3ccc(-c4cn[nH]c4)cc3OC)C2)C1` (stereo partly drawn) [Example 419, 2-methoxy-N-((aR)-6-(4-oxo-3,4-dihydrophthalazin-1-yl)spiro[3.3]heptan-2-yl)-4-(1H-pyrazol-4-yl)benzamide], 2.01 to 5 nM; with `[H][C@]1(c2n[nH]c(=O)c3ccccc32)C[C@]2(C[C@@H](NC(=O)c3cc4cccc(-c5cnn(C)c5)c4[nH]3)C2)C1` (stereo partly drawn) [Example 420, 7-(1-methyl-1H-pyrazol-4-yl)-N-((aR)-6-(4-oxo-3,4-dihydrophthalazin-1-yl)spiro[3.3]heptan-2-yl)-1H-indole-2-carboxamide], 5.1 to 15 nM. With `[H][C@]1(c2n[nH]c(=O)c3ccccc32)C[C@]2(C[C@@H](NC(=O)c3ccc4c(c3)COc3cncnc3-4)C2)C1` (stereo partly drawn) [Example 421, N-((aR)-6-(4-oxo-3,4-dihydrophthalazin-1-yl)spiro[3.3]heptan-2-yl)-6H-isochromeno[4,3-d]pyrimidine-8-carboxamide] the figure was 15.1 to 100 nM; with `[H][C@]1(c2n[nH]c(=O)c3ccccc32)C[C@]2(C[C@@H](NC(=O)c3ccc(-c4cnn(C)c4)c(OC)c3)C2)C1` (stereo partly drawn) [Example 422, 3-methoxy-4-(1-methyl-1H-pyrazol-4-yl)-N-((aR)-6-(4-oxo-3,4-dihydrophthalazin-1-yl)spiro[3.3]heptan-2-yl)benzamide], 2.01 to 5 nM.

Take `[H][C@]1(c2n[nH]c(=O)c3ccccc32)C[C@]2(C[C@@H](NC(=O)c3ccc(-c4cnn(C)c4)c(F)c3)C2)C1` (stereo partly drawn) [Example 423, 3-fluoro-4-(1-methyl-1H-pyrazol-4-yl)-N-((aR)-6-(4-oxo-3,4-dihydrophthalazin-1-yl)spiro[3.3]heptan-2-yl)benzamide]: the IC50 fell in the range of 2.01 to 5 nM. For `[H][C@]1(c2n[nH]c(=O)c3ccccc32)C[C@]2(C[C@@H](NC(=O)c3ccc(-c4cnn(C)c4)nc3)C2)C1` (stereo partly drawn) [Example 425, 6-(1-methyl-1H-pyrazol-4-yl)-N-((aR)-6-(4-oxo-3,4-dihydrophthalazin-1-yl)spiro[3.3]heptan-2-yl)nicotinamide] the value was 5.1 to 15 nM; for `[H][C@]1(c2n[nH]c(=O)c3ccccc32)C[C@]2(C[C@@H](NC(=O)c3cnc4cc(C(C)=O)ccn34)C2)C1` (stereo partly drawn) [Example 426, 7-acetyl-N-((aR)-6-(4-oxo-3,4-dihydrophthalazin-1-yl)spiro[3.3]heptan-2-yl)imidazo[1,2-a]pyridine-3-carboxamide], 0.2 to 2 nM; for `[2H]C([2H])([2H])n1cc(-c2ccc(C(=O)N[C@H]3CC4(C3)C[C@H](c3n[nH]c(=O)c5ccccc53)C4)cc2F)cn1` (stereo partly drawn) [Example 427, 3-fluoro-4-(1-d3-methyl-1H-pyrazol-4-yl)-N-((aR)-6-(4-oxo-3,4-dihydrophthalazin-1-yl)spiro[3.3]heptan-2-yl)benzamide], 5.1 to 15 nM.

Turning to `[H][C@]1(c2n[nH]c(=O)c3ccccc32)C[C@]2(C[C@@H](NC(=O)c3ccc(-c4cnn(C(F)F)c4)c(F)c3)C2)C1` (stereo partly drawn) [Example 428, 4-(1-(difluoromethyl)-1H-pyrazol-4-yl)-3-fluoro-N-((aR)-6-(4-oxo-3,4-dihydrophthalazin-1-yl)spiro[3.3]heptan-2-yl)benzamide], the IC50 was 5.1 to 15 nM. With `[H][C@]1(c2n[nH]c(=O)c3ccccc32)C[C@]2(C[C@@H](NC(=O)c3cnc4cc(C(C)(C)O)ccn34)C2)C1` (stereo partly drawn) [Example 429, 7-(2-hydroxypropan-2-yl)-N-((aR)-6-(4-oxo-3,4-dihydrophthalazin-1-yl)spiro[3.3]heptan-2-yl)imidazo[1,2-a]pyridine-3-carboxamide], the 50% inhibitory concentration (IC50) is 15.1 to 100 nM.

Consider `[H][C@]1(c2n[nH]c(=O)c3ccccc32)C[C@]2(C[C@@H](NC(=O)c3cnc4cc(C(C)O)ccn34)C2)C1` (stereo partly drawn) [Example 430, 7-(1-hydroxyethyl)-N-((aR)-6-(4-oxo-3,4-dihydrophthalazin-1-yl)spiro[3.3]heptan-2-yl)imidazo[1,2-a]pyridine-3-carboxamide], for which the IC50 lay within 5.1 to 15 nM. For `[H][C@]1(c2n[nH]c(=O)c3ccccc32)C[C@]2(C[C@@H](NC(=O)c3cnc4cc(OC5CCS(=O)(=O)CC5)ccn34)C2)C1` (stereo partly drawn) [Example 431, 7-((1,1-dioxidotetrahydro-2H-thiopyran-4-yl)oxy)-N-((aR)-6-(4-oxo-3,4-dihydrophthalazin-1-yl)spiro[3.3]heptan-2-yl)imidazo[1,2-a]pyridine-3-carboxamide] the value was 0.2 to 2 nM; for `[H][C@]1(c2n[nH]c(=O)c3ccccc32)C[C@]2(C[C@@H](NC(=O)c3cnc4cc(OCCC(F)(F)F)ccn34)C2)C1` (stereo partly drawn) [Example 432, N-((aR)-6-(4-oxo-3,4-dihydrophthalazin-1-yl)spiro[3.3]heptan-2-yl)-7-(3,3,3-trifluoro-propoxy)imidazo[1,2-a]pyridine-3-carboxamide], 2.01 to 5 nM. For `[H][C@]1(c2n[nH]c(=O)c3ccccc32)C[C@]2(C[C@@H](NC(=O)c3cnc4cc(OC(CF)CF)ccn34)C2)C1` (stereo partly drawn) [Example 433, 7-((1,3-difluoropropan-2-yl)oxy)-N-((aR)-6-(4-oxo-3,4-dihydrophthalazin-1-yl)spiro[3.3]heptan-2-yl)imidazo[1,2-a]pyridine-3-carboxamide] the value was 2.01 to 5 nM; for `[H][C@]1(c2n[nH]c(=O)c3ccccc32)C[C@]2(C[C@@H](NC(=O)c3cnc4cc(Oc5ccccn5)ccn34)C2)C1` (stereo partly drawn) [Example 434, N-((aR)-6-(4-oxo-3,4-dihydrophthalazin-1-yl)spiro[3.3]heptan-2-yl)-7-(pyridin-2-yloxy)imidazo[1,2-a]pyridine-3-carboxamidc], 0.2 to 2 nM; for `[H][C@]1(c2n[nH]c(=O)c3ccccc32)C[C@]2(C[C@@H](NC(=O)c3nc(C(C)C)n4ccccc34)C2)C1` (stereo partly drawn) [Example 435, 3-isopropyl-N-((aR)-6-(4-oxo-3,4-dihydrophthalazin-1-yl)spiro[3.3]heptan-2-yl)imidazo[1,5-a]pyridine-1-carboxamide], 5.1 to 15 nM. On to `[H][C@]1(c2n[nH]c(=O)c3ccccc32)C[C@]2(C[C@@H](NC(=O)c3cnc4cc(OCC(F)F)ccn34)C2)C1` (stereo partly drawn) [Example 436, 7-(2,2-difluoroethoxy)-N-((aR)-6-(4-oxo-3,4-dihydrophthalazin-1-yl)spiro[3.3]heptan-2-yl)imidazo[1,2-a]pyridine-3-carboxamide], for which the IC50 was in the range of 0.2 to 2 nM. For `[H][C@]1(c2n[nH]c(=O)c3ccccc32)C[C@]2(C[C@@H](NC(=O)c3cnc4cc(OC(C)C)ccn34)C2)C1` (stereo partly drawn) [Example 437, 7-isopropoxy-N-((aR)-6-(4-oxo-3,4-dihydrophthalazin-1-yl)spiro[3.3]heptan-2-yl)imidazo[1,2-a]pyridine-3-carboxamide] the value was 2.01 to 5 nM. With `[H][C@]1(c2n[nH]c(=O)c3ccccc32)C[C@]2(C[C@@H](NC(=O)c3cnn4cccc(N5CCOCC5)c34)C2)C1` (stereo partly drawn) [Example 438, 4-morpholino-N-((aR)-6-(4-oxo-3,4-dihydrophthalazin-1-yl)spiro[3.3]heptan-2-yl)pyrazolo[1,5-a]pyridine-3-carboxamide] the figure was 100 to 2100 nM.

In the case of `CCn1cc(-c2ccn3c(C(=O)N[C@H]4CC5(C4)C[C@H](c4n[nH]c(=O)c6ccccc64)C5)cnc3c2)cn1` (stereo partly drawn) [Example 439, 7-(1-ethyl-1H-pyrazol-4-yl)-N-((aR)-6-(4-oxo-3,4-dihydrophthalazin-1-yl)spiro[3.3]heptan-2-yl)imidazo[1,2-a]pyridine-3-carboxamide, TFA salt], the IC50 is 0.2 to 2 nM. In the case of `[H][C@]1(c2n[nH]c(=O)c3ccccc32)C[C@]2(C[C@@H](NC(=O)c3cnc4cc(-c5cnn(C)c5)ccn34)C2)C1` (stereo partly drawn) [Example 440, 7-(1-methyl-1H-pyrazol-4-yl)-N-((aR)-6-(4-oxo-3,4-dihydrophthalazin-1-yl)spiro[3.3]heptan-2-yl)imidazo[1,2-a]pyridine-3-carboxamide], the IC50 was 0.2 to 2 nM.

On to `[H][C@]1(c2n[nH]c(=O)c3ccccc32)C[C@]2(C[C@@H](NC(=O)c3cnc4cc(-c5cnn(C(C)C)c5)ccn34)C2)C1` (stereo partly drawn) [Example 441, 7-(1-isopropyl-1H-pyrazol-4-yl)-N-((aR)-6-(4-oxo-3,4-dihydrophthalazin-1-yl)spiro[3.3]heptan-2-yl)imidazo[1,2-a]pyridine-3-carboxamide], for which the half-inhibitory concentration (IC50) is 0.2 to 2 nM. For `[2H]C([2H])([2H])n1cc(-c2ccn3c(C(=O)N[C@H]4CC5(C4)C[C@H](c4n[nH]c(=O)c6ccccc64)C5)cnc3c2)cn1` (stereo partly drawn) [Example 442, 7-(1-(methyl-d3)-1H-pyrazol-4-yl)-N-((aR)-6-(4-oxo-3,4-dihydrophthalazin-1-yl)spiro[3.3]heptan-2-yl)imidazo[1,2-a]pyridine-3-carboxamide] the value was 0.2 to 2 nM; for `[H][C@]1(c2n[nH]c(=O)c3ccccc32)C[C@]2(C[C@@H](NC(=O)c3cnc4cc(-c5cnn(C6CCOCC6)c5)ccn34)C2)C1` (stereo partly drawn) [Example 443], 0.2 to 2 nM; for `[H][C@]1(c2n[nH]c(=O)c3ccccc32)C[C@]2(C[C@@H](NC(=O)c3cnc4cc(-c5cn(C(C)C)nc5C(F)(F)F)ccn34)C2)C1` (stereo partly drawn) [Example 444, 7-(1-isopropyl-3-(trifluoromethyl)-1H-pyrazol-4-yl)-N-((aR)-6-(4-oxo-3,4-dihydrophthalazin-1-yl)spiro[3.3]heptan-2-yl)imidazo[1,2-a]pyridine-3-carboxamide], 2.01 to 5 nM.
